Data from US20250136581A1, “SUBSTITUTED TRIAZOLE DERIVATIVE, PREPARATION METHOD THEREFOR, PHARMACEUTICAL COMPOSITION THEREOF, AND USE THEREOF” (SHANGHAI SIMR BIOTECHNOLOGY CO., LTD., priority 2021, published 2025).

How the values were obtained:
human α1β3γ2 receptors = human α1β3γ2 receptors (Homo sapiens (Human), UniProt P14867+P18507); experiment: 3H-flunitrazepam competition binding, human α1β3γ2 GABAA receptor; settings: HEK293 cell membranes, 1 nM 3H-flunitrazepam; read-out: Ki α1
Method in brief: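 Radioligand displacement of 1 nM 3H-flunitrazepam from membranes of HEK293 lines stably expressing the human subtypes, 1 h at room temperature, compound in 8-point 4-fold series. Bound label on GF/C filters counted by scintillation; Ki derived from fitted IC50, with flumazenil as low control.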

human MDR1 P-gp = experiment: MDCKII-MDR1 permeability; type: in vitro ADME, canine; settings: dog
Procedure: Brain permeability of compounds was assessed by measuring compound efflux in Madin-Darby canine kidney-II (MDCKII) cells transfected with the human MDR1 gene (Drug metabolism and disposition, 2008, 36(2), 268-275).
The active transport mechanism was mediated by uptake and efflux transporters expressed on MDCKII-MDR1 cells, primarily by overexpressed human MDR1 P-gp.
MDCKII-MDR1 cells were seeded on the polycarbonate microporous membrane of Transwell™ at a density of (0.85 to 5.0)×10^6/cm^2, and used for experiments when the cells reached complete confluence (3 to 5 d). […] At the beginning and end of the experiment, samples were collected from the transport solution side. After incubation for a certain period of time (1.5 hours), samples were also collected from the buffer side, and the concentration was determined by HPLC-MS/MS or scintillation counting.

[1] = Rat pharmacokinetic experiment; type: in vivo; settings: rat, po, 3 mg/kg
Procedure: The maximum plasma concentration (Cmax) in the rat pharmacokinetic experiment was used to evaluate the absorption of the compounds in rat in vivo. The experimental compound was dissolved and then orally administered by gavage (p.o.) to male SD rats. The rats were fasted overnight before drug administration, and blood was collected via venipuncture at 0.25, 0.5, 1, 2, 4, and 7 hours post dose. Approximately 100 μL blood was collected for each sample; at the same time, the whole brain was taken and homogenized with 3 times the amount of PBS for analysis. The […] method was used to determine drug concentrations in plasma and brain tissue, and the proportion of compounds entering the brain (B/P) was calculated based on the AUC of the compound. Pharmacokinetic parameters were calculated using Phoenix WinNonlin 7.0. The administration vehicle was 5% CMC-Na aqueous solution.

Cc1nnn(-c2ccc(C(F)F)cc2)c1COc1ccc(N2CC(=O)NC(C)C2)nn1 (centres unmarked) [Example 6, 4-(6-((1-(4-(Difluoromethyl)phenyl)-4-methyl-1H-1,2,3-triazol-5-yl)methoxy)pyridazin-3-yl)-6-methylpiperazin-2-one]
Ki (human α1β3γ2 receptors): 0.0598 µM
efflux ratio at 1.5 h (human MDR1 P-gp; MDCK-MDR1, pH 7.4, Papp (B-A)/Papp (A-B), read-out: Efflux ratio (ER)): 7.52
Papp A→B at 1.5 h (human MDR1 P-gp; MDCK-MDR1, pH 7.4, 37° C., 1.5 hours): 4.16 ×10⁻⁶ cm/s
Kp ([1]; male, SD, brain / plasma, read-out: B/P (proportion of compounds entering the brain)): 0.0015
Cmax ([1]; plasma, male SD rats): 1510 ng/mL
